Reference: patent publication US9126999B2, “Tetrahydropyrazolopyrimidine compounds” (EISAI R&D MANAGEMENT CO., LTD., priority 2012, dated 2015)

Key:
BXSB-Yaa mice = experiment: BXSB-Yaa strain lupus disease model; assay type: in vivo, mouse; conditions: for proteinuria: UACR; for Grade 3/4 nephritis onset: kidney histopathology
Description: Figure Legend: Twelve week old BXSB-Yaa mice were randomized into groups with equivalent median anti-dsDNA titers and treated once-a-day orally with Vehicle (Veh; 0.5% methyl-cellulose) alone or 300 mg/kg ER-892887 for 14 weeks total. (A) All mice were sacrificed at 26 weeks of age and final anti-dsDNA, anti-Sm/nRNP, and anti-RiboP titers were evaluated by ELISA as compared to titers observed in 6 wk old pre-diseased mice. (B) Approximately one week prior to sacrifice (25 weeks of age, 13 weeks of treatment), mice were housed 1-2 per cage in metabolic cages for 18 hours to collect urine, and the Urinary Albumin Creatinine Ratio (UACR, proteinuria) was determined for each animal as an indirect measure of kidney function. (C) At the time of sacrifice, kidneys were collected from individual mice, fixed in 10% formalin for 24 hours, embedded in paraffin, and H&E stained sections were generated for histopathology assessment in a blinded fashion. (D) Summary of mortality observed in the SLE-8 study. Statistical significance was determined by Mann-Whitney test for (A).
Figure Legend: Nine week old male BXSB-Yaa mice were treated once-a-day orally with Vehicle (Veh; 0.5% methyl-cellulose) alone or 100 mg/kg or 300 mg/kg ER-885454 for 15 weeks total. All mice were sacrificed at 24 weeks of age and final anti-dsDNA (A) and anti-Sm/RNP (B) titers were evaluated by ELISA. (C) Approximately one week prior to sacrifice, mice were housed 1-2 per cage in metabolic cages for 18 hours to collect urine, and the Urinary Albumin Creatinine Ratio (UACR, proteinuria) was determined for each animal as an indirect measure of kidney function. (D) At the time of sacrifice, kidneys were collected from individual mice, fixed in 10% formalin for 24 hours, embedded in paraffin, and H&E stained sections were generated for histopathology assessment in a blinded fashion. Statistical significance was determined by Mann-Whitney test for (A), (B), and (C) above.
Figure Legend: Seventeen week old BXSB-Yaa mice were randomized into two groups with equivalent median anti-dsDNA titers and treated once-a-day orally with Vehicle (Veh; 0.5% methyl-cellulose) alone or 300 mg/kg ER-885454 for 13 weeks total. All mice were sacrificed at 30 weeks of age and final anti-dsDNA (A) and anti-Sm/RNP (B) titers were evaluated by ELISA as compared to titers observed in 7 wk old pre-diseased mice. (C) Approximately one week prior to sacrifice, mice were housed 1-2 per cage in metabolic cages for 18 hours to collect urine, and the Urinary Albumin Creatinine Ratio (UACR, proteinuria) was determined for each animal as an indirect measure of kidney function. (D) At the time of sacrifice, kidneys were collected from individual mice, fixed in 10% formalin for 24 hours, embedded in paraffin, and H&E stained sections were generated for histopathology assessment in a blinded fashion. Statistical significance was determined by Mann-Whitney test for (A), (B), and (C) above.
Male BXSB-Yaa and female NZBWF1/J mice were purchased from Jackson Labs (Bar Harbor, Me.), both of which manifest with spontaneous lupus disease. Female DBA/1 mice were purchased from Harlan Laboratories (Indianapolis, Ind.) and at the indicated ages given an intraperitoneal injection of 0.5 ml pristane (2,6,10,14-Tetramethylpentadecane; Sigma, St. Louis, Mo.) to chemically induce lupus disease or of 0.5 ml PBS to generate age-matched, non-diseased control mice. Mice were dosed daily by oral administration of compound or drug in 0.5% methylcellulose, for the time period indicated.
Anti-dsDNA, -Sm/nRNP, -RiboP, and Histone titers were evaluated by standard ELISA approach. Briefly, 96-well EIA/RIA ELISA plates (Corning) were coated with 100 ul of diluted antigen in PBS for 90 minutes at room temperature as follows (final concentrations indicated): 10 U/ml Sm/nRNP complex (Immunovision), 10 ug/ml calf thymus dsDNA (Sigma), 5 U/ml RiboP (Immunovision), and 5 ug/ml Histone (Immunovision). […]

Human TLR4 = Human TLR4 (Homo sapiens, UniProt O00206); experiment: HEK-293 NF-kappaB luciferase reporter assay, LPS stimulus; assay type: cell-based; set-up: engineered to stably and individually express human TLR4, TLR7 or TLR9 full-length ORF cDNAs; expressed in transfected cells; host or cells: HEK-293 (ATCC) with ELAM-1 NF-kappaB luciferase reporter; conditions: ligand LPS, analyte NFkB-luciferase
Description: In vitro pharmacology: HEK-293 cells (ATCC) were engineered to stably express a NF-kappaB transcription factor inducible E-selectin (ELAM-1) luciferase reporter derived from the plasmid pGL3 (Promega) containing base pairs −2241 bp to −254 bp from the promoter of the human E-selectin gene (Accession No. NM_000450). These cells were then subsequently engineered to stably and individually express human TLR4, TLR7 or TLR9 full-length ORF cDNAs. Human TLR4 cDNA (Accession No. NM_138554) was cloned into pcDNA 3.0 expression vector (Invitrogen). TLR4 transfected cells were also engineered to express human MD-2 co-receptor [MD-2 cDNA (Accession No. NM_015364) was cloned into the pEF-BOS vector] and were supplemented with 10 nM soluble CD14 (R&D Systems) in the media to optimize LPS responsiveness. Human TLR9 cDNA (Accession No. NM_017442) was cloned into the pBluescript II KS vector (Agilent). Human TLR7 cDNA (Accession No. NM_016562) was obtained from OriGene. HEK-293 cells stably expressing human TLR8 (Accession No. NM_138636) or mouse TLR7 (Accession No. NM_133211) were purchased from InvivoGen and were then stably transfected with pNiFty2(NF-kappaB)-luciferase reporter plasmid (InvivoGen). […]

Human TLR4, sequence (O00206 24-839): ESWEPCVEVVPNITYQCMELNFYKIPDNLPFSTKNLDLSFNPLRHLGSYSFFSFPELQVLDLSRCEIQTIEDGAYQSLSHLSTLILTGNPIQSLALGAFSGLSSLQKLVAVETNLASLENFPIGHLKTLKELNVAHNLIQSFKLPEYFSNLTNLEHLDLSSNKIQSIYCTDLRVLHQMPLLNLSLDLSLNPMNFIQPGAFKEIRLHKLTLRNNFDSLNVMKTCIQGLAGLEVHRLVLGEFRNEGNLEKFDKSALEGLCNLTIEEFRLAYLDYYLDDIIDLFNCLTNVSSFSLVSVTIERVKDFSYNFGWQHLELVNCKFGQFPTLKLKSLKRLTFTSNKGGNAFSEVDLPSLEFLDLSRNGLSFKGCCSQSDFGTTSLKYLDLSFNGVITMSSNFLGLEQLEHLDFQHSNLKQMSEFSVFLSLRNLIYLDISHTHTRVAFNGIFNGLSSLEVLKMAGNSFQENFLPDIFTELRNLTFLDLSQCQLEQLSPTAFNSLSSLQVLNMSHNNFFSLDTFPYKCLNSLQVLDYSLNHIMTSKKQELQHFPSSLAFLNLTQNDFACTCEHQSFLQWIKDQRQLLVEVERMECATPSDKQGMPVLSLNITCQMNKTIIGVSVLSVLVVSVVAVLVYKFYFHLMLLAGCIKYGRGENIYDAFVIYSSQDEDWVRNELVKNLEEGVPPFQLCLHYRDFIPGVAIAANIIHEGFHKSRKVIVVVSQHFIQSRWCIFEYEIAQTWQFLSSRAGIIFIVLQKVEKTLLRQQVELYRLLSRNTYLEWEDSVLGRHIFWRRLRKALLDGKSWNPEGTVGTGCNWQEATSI
Human TLR4, sequence (Q9Y6Y9 19-160 partner): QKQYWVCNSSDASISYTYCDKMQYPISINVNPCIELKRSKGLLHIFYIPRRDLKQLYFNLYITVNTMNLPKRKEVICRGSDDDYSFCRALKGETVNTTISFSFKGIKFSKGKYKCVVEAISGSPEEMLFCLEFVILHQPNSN

SMILES	proteinuria (BXSB-Yaa mice)	Grade 3/4 nephritis onset (BXSB-Yaa mice)	anti-Sm/nRNP titers (BXSB-Yaa mice; once-a-day oral)	anti-dsDNA titers (BXSB-Yaa mice; once-a-day oral)	IC50 (Human TLR4)
COc1ccc([C@@H]2C[C@H](C(F)(F)F)n3nc(-c4ccncc4)cc3N2)cc1OC [ER-885454]	significantly reduced proteinuria	complete prevention	significantly reduced	significantly reduced	–
COc1ccc([C@@H]2C[C@H](C(F)(F)F)n3nc(-c4ccc(C(=O)N5CCNCC5)cc4)cc3N2)cc1OC [ER-892887, (4-((5S,7R)-5-(3,4-dimethoxyphenyl)-7-(trifluoromethyl)-4,5,6,7-tetrahydropyrazolo[1,5-a]pyrimidin-2-yl)phenyl)(piperazin-1-yl)methanone]	trend towards reduced proteinuria	complete prevention	–	significantly reduced	> 10 µM
